# From US20240277698A1, “METHODS OF USING ALDOSTERONE SYNTHASE INHIBITORS” (CINCOR PHARMA, INC., priority 2021, published 2024)
# Target: T1, aldosterone synthase (Homo sapiens, UniProt P19099)
# T1 construct: synthesized in the adrenal cortex by aldosterone synthase; endogenous in cells; host or cells: adrenal cortex of healthy human subjects (in vivo, oral dosing)
# T1 sequence (P19099 25-503): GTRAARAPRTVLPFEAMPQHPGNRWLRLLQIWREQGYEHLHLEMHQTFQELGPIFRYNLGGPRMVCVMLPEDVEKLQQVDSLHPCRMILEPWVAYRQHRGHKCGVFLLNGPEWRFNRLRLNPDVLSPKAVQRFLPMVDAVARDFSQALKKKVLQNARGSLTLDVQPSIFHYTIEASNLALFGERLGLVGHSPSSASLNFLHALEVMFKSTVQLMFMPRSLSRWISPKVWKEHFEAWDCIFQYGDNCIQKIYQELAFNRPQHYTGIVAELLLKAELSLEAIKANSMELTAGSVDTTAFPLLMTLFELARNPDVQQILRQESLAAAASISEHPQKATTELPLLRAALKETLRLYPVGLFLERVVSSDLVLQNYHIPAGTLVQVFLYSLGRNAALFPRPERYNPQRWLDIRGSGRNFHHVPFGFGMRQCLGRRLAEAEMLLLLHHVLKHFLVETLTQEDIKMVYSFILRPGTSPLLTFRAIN
# Experiment: MAD study: plasma aldosterone and precursors (18-hydroxycorticosterone, corticosterone, 11-deoxycorticosterone)
# Type: in vivo
# Details: mean; for Plasma 11-deoxycorticosterone, Day −1 predose / Plasma 18-hydroxycorticosterone, Day −1 predose / Plasma aldosterone, Day −1 predose / Plasma corticosterone, Day −1 predose: baseline
# Text: For each subject, the study consisted of: • A screening period of up to 28 days; • A 5-day inpatient run-in period during which subjects adhered to a controlled, standardized diet and underwent baseline PD assessments; • A 15-day inpatient treatment period, during which subjects received (R)-compound 1 or placebo once daily for 10 days while adhering to a controlled, standardized diet, followed by PK and PD sampling over an additional 5 days; and • A follow-up visit 3 days (1 day) after discharge from the clinical unit. • A cortisol stimulation test (Cohorts 1 and 2 only) and standing aldosterone assessment (all cohorts) were performed on Days 1 and 10. Serial blood samples for PK and PD were obtained prior to and at specified time points over 24 hours after dosing on Day 1 as well as prior to and at specified time points over 120 hours after dosing on Day 10. In addition, blood samples for PK were collected prior to dosing on Days 8 and 9. Urine for PK and PD measurements was collected over 24 hours starting just prior to dosing on Day 1 as well as over 120 hours starting just prior to dosing on Day 10. […]
structure (smiles),measurement,setting,value
"CCC(=O)N[C@@H]1CCCc2c(-c3ccc4c(c3)CCC(=O)N4C)cncc21 [(R)-Compound 1, (R)—N-(4-(1-methyl-2-oxo-1,2,3,4-tetrahydroquinolin-6-yl)-5,6,7,8-tetrahydroisoquinolin-8-yl)propionamide]","Plasma 11-deoxycorticosterone, Day −1 predose","0.5 mg QD, normal salt diet",52.625 pg/mL
same,"Plasma 18-hydroxycorticosterone, Day −1 predose","0.5 mg QD, normal salt diet",955.5 pg/mL
same,"Plasma aldosterone, Day −1 predose","0.5 mg QD, normal salt diet",131.588 pg/mL
same,"Plasma corticosterone, Day −1 predose","0.5 mg QD, normal salt diet",4302.5 pg/mL
same,"Plasma 11-deoxycorticosterone, Day 1, 12 hours postdose","0.5 mg QD, normal salt diet",35.900 pg/mL
same,"Plasma 11-deoxycorticosterone, Day 1, predose","0.5 mg QD, normal salt diet",50.938 pg/mL
same,"Plasma 11-deoxycorticosterone, Day 2, predose","0.5 mg QD, normal salt diet",72.950 pg/mL
same,"Plasma 11-deoxycorticosterone, Day 10, 12 hours postdose","0.5 mg QD, normal salt diet",70.813 pg/mL
same,"Plasma 11-deoxycorticosterone, Day 10, 24 hours postdose","0.5 mg QD, normal salt diet",115.663 pg/mL
same,"Plasma 11-deoxycorticosterone, Day 10, predose","0.5 mg QD, normal salt diet",112.375 pg/mL
same,"Plasma 11-deoxycorticosterone, Percent change from Day −1 to Day 10, predose","0.5 mg QD, normal salt diet",161.115%
same,"Plasma 18-hydroxycorticosterone, Day 1, 12 hours postdose","0.5 mg QD, normal salt diet",310.1 pg/mL
same,"Plasma 18-hydroxycorticosterone, Day 1, predose","0.5 mg QD, normal salt diet",943.1 pg/mL
same,"Plasma 18-hydroxycorticosterone, Day 2, predose","0.5 mg QD, normal salt diet",819.6 pg/mL
same,"Plasma 18-hydroxycorticosterone, Day 10, 12 hours postdose","0.5 mg QD, normal salt diet",326.5 pg/mL
same,"Plasma 18-hydroxycorticosterone, Day 10, 24 hours postdose","0.5 mg QD, normal salt diet",1016.4 pg/mL
same,"Plasma 18-hydroxycorticosterone, Day 10, predose","0.5 mg QD, normal salt diet",983.1 pg/mL
same,"Plasma 18-hydroxycorticosterone, Percent change from Day −1 to Day 10","0.5 mg QD, normal salt diet",5.2%
same,"Plasma aldosterone, Day 1, 12 hours postdose","0.5 mg QD, normal salt diet",56.250 pg/mL
same,"Plasma aldosterone, Day 1, predose","0.5 mg QD, normal salt diet",133.013 pg/mL
same,"Plasma aldosterone, Day 2, predose","0.5 mg QD, normal salt diet",80.100 pg/mL
same,"Plasma aldosterone, Day 10, 12 hours postdose","0.5 mg QD, normal salt diet",83.625 pg/mL
same,"Plasma aldosterone, Day 10, 24 hours postdose","0.5 mg QD, normal salt diet",143.338 pg/mL
same,"Plasma aldosterone, Day 10, predose","0.5 mg QD, normal salt diet",152.875 pg/mL
same,"Plasma aldosterone, Percent change from Day −1 to Day 10, predose","0.5 mg QD, normal salt diet",28.841%
same,"Plasma corticosterone, Day 1, 12 hours postdose","0.5 mg QD, normal salt diet",695.6 pg/mL
same,"Plasma corticosterone, Day 1, predose","0.5 mg QD, normal salt diet",3170.0 pg/mL
same,"Plasma corticosterone, Day 2, predose","0.5 mg QD, normal salt diet",4490.0 pg/mL
same,"Plasma corticosterone, Day 10, 12 hours postdose","0.5 mg QD, normal salt diet",1211.4 pg/mL
same,"Plasma corticosterone, Day 10, 24 hours postdose","0.5 mg QD, normal salt diet",5923.8 pg/mL
same,"Plasma corticosterone, Day 10, predose","0.5 mg QD, normal salt diet",4187.5 pg/mL
same,"Plasma corticosterone, Percent change from Day −1 to Day 10, predose","0.5 mg QD, normal salt diet",73.0%
same,"Plasma 11-deoxycorticosterone, Day −1 predose","1.5 mg QD, normal salt diet",43.489 pg/mL
same,"Plasma 18-hydroxycorticosterone, Day −1 predose","1.5 mg QD, normal salt diet",1027.4 pg/mL
same,"Plasma aldosterone, Day −1 predose","1.5 mg QD, normal salt diet",143.100 pg/mL
same,"Plasma corticosterone, Day −1 predose","1.5 mg QD, normal salt diet",3748.3 pg/mL
same,"Plasma 11-deoxycorticosterone, Day 1, 12 hours postdose","1.5 mg QD, normal salt diet",19.656 pg/mL
same,"Plasma 11-deoxycorticosterone, Day 1, predose","1.5 mg QD, normal salt diet",44.711 pg/mL
same,"Plasma 11-deoxycorticosterone, Day 2, predose","1.5 mg QD, normal salt diet",53.344 pg/mL
same,"Plasma 11-deoxycorticosterone, Day 10, 12 hours postdose","1.5 mg QD, normal salt diet",46.733 pg/mL
same,"Plasma 11-deoxycorticosterone, Day 10, 24 hours postdose","1.5 mg QD, normal salt diet",84.767 pg/mL
same,"Plasma 11-deoxycorticosterone, Day 10, predose","1.5 mg QD, normal salt diet",73.322 pg/mL
same,"Plasma 11-deoxycorticosterone, Percent change from Day −1 to Day 10, predose","1.5 mg QD, normal salt diet",104.945%
same,"Plasma 18-hydroxycorticosterone, Day 1, 12 hours postdose","1.5 mg QD, normal salt diet",225.6 pg/mL
same,"Plasma 18-hydroxycorticosterone, Day 1, predose","1.5 mg QD, normal salt diet",991.7 pg/mL
same,"Plasma 18-hydroxycorticosterone, Day 2, predose","1.5 mg QD, normal salt diet",829.3 pg/mL
same,"Plasma 18-hydroxycorticosterone, Day 10, 12 hours postdose","1.5 mg QD, normal salt diet",318.4 pg/mL
same,"Plasma 18-hydroxycorticosterone, Day 10, 24 hours postdose","1.5 mg QD, normal salt diet",1000.1 pg/mL
same,"Plasma 18-hydroxycorticosterone, Day 10, predose","1.5 mg QD, normal salt diet",1047.9 pg/mL
same,"Plasma 18-hydroxycorticosterone, Percent change from Day −1 to Day 10","1.5 mg QD, normal salt diet",6.1%
same,"Plasma aldosterone, Day 1, 12 hours postdose","1.5 mg QD, normal salt diet",27.111 pg/mL
same,"Plasma aldosterone, Day 1, predose","1.5 mg QD, normal salt diet",110.567 pg/mL
same,"Plasma aldosterone, Day 2, predose","1.5 mg QD, normal salt diet",52.933 pg/mL
same,"Plasma aldosterone, Day 10, 12 hours postdose","1.5 mg QD, normal salt diet",41.300 pg/mL
same,"Plasma aldosterone, Day 10, 24 hours postdose","1.5 mg QD, normal salt diet",92.533 pg/mL
same,"Plasma aldosterone, Day 10, predose","1.5 mg QD, normal salt diet",82.144 pg/mL
same,"Plasma aldosterone, Percent change from Day −1 to Day 10, predose","1.5 mg QD, normal salt diet",−37.405%
same,"Plasma corticosterone, Day 1, 12 hours postdose","1.5 mg QD, normal salt diet",635.2 pg/mL
same,"Plasma corticosterone, Day 1, predose","1.5 mg QD, normal salt diet",3988.3 pg/mL
same,"Plasma corticosterone, Day 2, predose","1.5 mg QD, normal salt diet",4413.3 pg/mL
same,"Plasma corticosterone, Day 10, 12 hours postdose","1.5 mg QD, normal salt diet",1417.0 pg/mL
same,"Plasma corticosterone, Day 10, 24 hours postdose","1.5 mg QD, normal salt diet",6065.6 pg/mL
same,"Plasma corticosterone, Day 10, predose","1.5 mg QD, normal salt diet",5677.8 pg/mL
same,"Plasma corticosterone, Percent change from Day −1 to Day 10, predose","1.5 mg QD, normal salt diet",115.1%
same,"Plasma 11-deoxycorticosterone, Day −1 predose","2.5 mg QD, low salt diet",72.688 pg/mL
same,"Plasma 18-hydroxycorticosterone, Day −1 predose","2.5 mg QD, low salt diet",1269.6 pg/mL
same,"Plasma aldosterone, Day −1 predose","2.5 mg QD, low salt diet",272.125 pg/mL
same,"Plasma corticosterone, Day −1 predose","2.5 mg QD, low salt diet",6383.8 pg/mL
same,"Plasma 11-deoxycorticosterone, Day 1, 12 hours postdose","2.5 mg QD, low salt diet",133.300 pg/mL
same,"Plasma 11-deoxycorticosterone, Day 1, predose","2.5 mg QD, low salt diet",83.825 pg/mL
same,"Plasma 11-deoxycorticosterone, Day 10, 12 hours postdose","2.5 mg QD, low salt diet",204.250 pg/mL
same,"Plasma 11-deoxycorticosterone, Day 10, 24 hours postdose","2.5 mg QD, low salt diet",217.975 pg/mL
same,"Plasma 11-deoxycorticosterone, Day 10, predose","2.5 mg QD, low salt diet",164.725 pg/mL
same,"Plasma 11-deoxycorticosterone, Percent change from Day −1 to Day 10, predose","2.5 mg QD, low salt diet",412.560%
same,"Plasma 18-hydroxycorticosterone, Day 1, 12 hours postdose","2.5 mg QD, low salt diet",230.4 pg/mL
same,"Plasma 18-hydroxycorticosterone, Day 1, predose","2.5 mg QD, low salt diet",839.6 pg/mL
same,"Plasma 18-hydroxycorticosterone, Day 10, 12 hours postdose","2.5 mg QD, low salt diet",339.1 pg/mL
